Consider 3 compounds from US8497240B2 (priority 2006, dated 2013).

The assay is classed as in vivo, NIH/Swiss mice. The settings on record: 30 nmol/kg.

Method: In FIG. 3A, bars represent mean±sd, n=6-10. […] Gavage (1.5 g/kg) was given at t=0, Sample was taken at t=30 min. […] In FIG. 3B, points represent mean±sem, n=8-15.
Peptide was injected IP at t=−5 minutes into 4-hour fasted NIH/Swiss female mice. […] In FIG. 17 points represent mean+/−sem. […] Samples were taken at t=60, t=120 and t=180.

Consider `CC[C@H](C)[C@H](NC(=O)[C@H](CO)NC(=O)[C@H](Cc1ccc(O)cc1)NC(=O)[C@H](CC(=O)O)NC(=O)[C@H](CO)NC(=O)[C@@H](NC(=O)[C@H](Cc1ccccc1)NC(=O)[C@@H](NC(=O)CNC(=O)[C@H](CCC(=O)O)NC(=O)[C@H](C)NC(=O)[C@@H](N)Cc1ccc(O)cc1)[C@@H](C)O)[C@@H](C)CC)C(=O)N[C@@H](C)C(=O)N[C@@H](CCSC)C(=O)N[C@@H](CC(=O)O)C(=O)N[C@@H](CCCCN)C(=O)N[C@H](C(=O)N[C@@H](Cc1c[nH]cn1)C(=O)N[C@@H](CCC(N)=O)C(=O)N[C@@H](CCC(N)=O)C(=O)N[C@@H](CC(=O)O)C(=O)N[C@@H](Cc1ccccc1)C(=O)N[C@H](C(=O)N[C@@H](CC(N)=O)C(=O)N[C@@H](Cc1c[nH]c2ccccc12)C(=O)N[C@@H](CC(C)C)C(=O)N[C@@H](CC(C)C)C(=O)N[C@@H](C)C(=O)N[C@@H](CCC(N)=O)C(=O)N[C@@H](CCCCN)C(=O)N1CCC[C@H]1C(=O)N[C@@H](CCCCN)C(=O)N[C@@H](CCCCN)C(=O)N[C@H](C(=O)N[C@@H](CCCNC(=N)N)C(=O)N[C@@H](Cc1ccc(O)cc1)C(=O)N[C@@H](CO)C(N)=O)[C@@H](C)CC)C(C)C)[C@@H](C)CC` [0601GIP4327], for which the “OGTT/GL (%)” value is −7, 30%.
For the compound `CC[C@H](C)[C@H](NC(=O)[C@H](CO)NC(=O)[C@H](Cc1ccc(O)cc1)NC(=O)[C@H](CC(=O)O)NC(=O)[C@H](CO)NC(=O)[C@@H](NC(=O)[C@H](Cc1ccccc1)NC(=O)[C@@H](NC(=O)CNC(=O)[C@H](CCC(=O)O)NC(=O)[C@H](C)NC(=O)[C@@H](N)Cc1ccc(O)cc1)[C@@H](C)O)[C@@H](C)CC)C(=O)N[C@@H](C)C(=O)N[C@@H](CCSC)C(=O)N[C@@H](CC(=O)O)C(=O)N[C@@H](CCCCN)C(=O)N[C@H](C(=O)N[C@@H](Cc1c[nH]cn1)C(=O)N[C@@H](CCC(N)=O)C(=O)N[C@@H](CCC(N)=O)C(=O)N[C@@H](CC(=O)O)C(=O)N[C@@H](Cc1ccccc1)C(=O)N[C@H](C(=O)N[C@@H](CC(N)=O)C(=O)N[C@@H](Cc1c[nH]c2ccccc12)C(=O)N[C@@H](CC(C)C)C(=O)N[C@@H](CC(C)C)C(=O)N[C@@H](C)C(=O)N[C@@H](CCC(N)=O)C(=O)N[C@@H](CCCCN)C(=O)N[C@H](C(=O)N[C@@H](CO)C(=O)N1CCC[C@H]1C(=O)N[C@@H](CCCNC(=N)N)C(=O)N1CCC[C@H]1C(=O)N1CCC[C@H]1C(=O)N[C@@H](CO)C(N)=O)[C@@H](C)O)C(C)C)[C@@H](C)CC` [0601GIP4328], the “OGTT/GL (%)” value is reported as −2, 30%.
Take `CC[C@H](C)[C@H](NC(=O)[C@H](CO)NC(=O)[C@H](Cc1ccc(O)cc1)NC(=O)[C@H](CC(=O)O)NC(=O)[C@H](CO)NC(=O)[C@@H](NC(=O)[C@H](Cc1ccccc1)NC(=O)[C@@H](NC(=O)CNC(=O)[C@H](CCC(=O)O)NC(=O)[C@H](C)NC(=O)[C@@H](N)Cc1ccc(O)cc1)[C@@H](C)O)[C@@H](C)CC)C(=O)N[C@@H](C)C(=O)N[C@@H](CCSC)C(=O)N[C@@H](CC(=O)O)C(=O)N[C@@H](CCCCN)C(=O)N[C@H](C(=O)N[C@@H](Cc1c[nH]cn1)C(=O)N[C@@H](CCC(N)=O)C(=O)N[C@@H](CCC(N)=O)C(=O)N[C@@H](CC(=O)O)C(=O)N[C@@H](Cc1ccccc1)C(=O)N[C@H](C(=O)N[C@@H](CC(N)=O)C(=O)N[C@@H](Cc1c[nH]c2ccccc12)C(=O)N[C@@H](CC(C)C)C(=O)N[C@@H](CC(C)C)C(=O)N[C@@H](C)C(=O)N[C@@H](CCC(N)=O)C(=O)N[C@@H](CCCCN)C(=O)N[C@H](C(=O)N[C@@H](CO)C(=O)N1CCC[C@H]1C(=O)N[C@@H](CCCNC(=N)N)C(=O)N1CCC[C@H]1C(=O)N1CCC[C@H]1C(=O)N[C@@H](CO)C(=O)N[C@@H](CO)C(N)=O)[C@@H](C)O)C(C)C)[C@@H](C)CC` [0601GIP4401]: the “OGTT/GL (%)” value is 1, 30%.
